Experimental data as given in ChEMBL document CHEMBL4665851, “Design, synthesis, antimycobacterial activity and molecular docking studies of novel 3- (N-substituted glycinamido) benzoic acid analogues as anti tubercular agents” (Bioorg Med Chem Lett, 2020).
≈ marks a conversion by molar mass, not a printed value.

Assays:
Conditions in all cases: time 5.0 day
[1] = system: Mycobacterium tuberculosis H37Rv; experiment: Inhibition of MmA1 in Mycobacterium tuberculosis H37Rv assessed as reduction in bacterial growth incubated for 5 days by MABA assay
[2] = system: Mycobacterium tuberculosis H37Rv; experiment: Potency index, ratio of pyrazinamide MIC to test compound MIC for Inhibition of MmA1-mediated antitubercular activity against Mycobacterium tuberculosis H37Rv incubated for 5 days by MABA assay
[3] = system: Mycobacterium tuberculosis H37Rv; experiment: Potency index, ratio of streptomycin MIC to test compound MIC for Inhibition of MmA1-mediated antitubercular activity against Mycobacterium tuberculosis H37Rv incubated for 5 days by MABA assay
[4] = system: Mycobacterium tuberculosis H37Rv; experiment: Potency index, ratio of ciprofloxacin MIC to test compound MIC for Inhibition of MmA1-mediated antitubercular activity against Mycobacterium tuberculosis H37Rv incubated for 5 days by MABA assay

Structure (SMILES)	MIC [1]	Ratio [2]	Ratio [3]	Ratio [4]
Cc1ccc(NCC(=O)Nc2cccc(C(=O)O)c2)cc1	6.25 µg/mL (≈ 22 µM)			
O=C(CNc1ccccn1)Nc1cccc(C(=O)O)c1	12.5 µg/mL (≈ 46.1 µM)			
CN[C@@H]1[C@H](O[C@H]2[C@H](O[C@H]3[C@H](O)[C@@H](O)[C@H](N=C(N)N)[C@@H](O)[C@@H]3N=C(N)N)O[C@@H](C)[C@]2(O)C=O)O[C@@H](CO)[C@H](O)[C@H]1O	6.25 µg/mL (≈ 10.7 µM)			
O=C(O)c1cn(C2CC2)c2cc(N3CCNCC3)c(F)cc2c1=O	3.12 µg/mL (≈ 9.42 µM)			
NC(=O)c1cnccn1	3.12 µg/mL (≈ 25.3 µM)			
O=C(Cn1ccnc1)Nc1cccc(C(=O)O)c1	12.5 µg/mL (≈ 51 µM)			
O=C(CN1CCOCC1)Nc1cccc(C(=O)O)c1	25 µg/mL (≈ 94.6 µM)			
O=C(CNc1ccc(Cl)cc1)Nc1cccc(C(=O)O)c1	6.25 µg/mL (≈ 20.5 µM)			
O=C(CN1CCN(Cc2ccccc2)CC1)Nc1cccc(C(=O)O)c1	3.12 µg/mL (≈ 8.83 µM)			
CN1CCN(CC(=O)Nc2cccc(C(=O)O)c2)CC1	1.6 µg/mL (≈ 5.77 µM)	> 2	> 2	> 2
O=C(CN1CCOCC1)Nc1cccc(C(=O)Nc2ccc3[nH]cnc(=O)c3c2)c1	100 µg/mL (≈ 245 µM)			
O=C(CNc1ccccc1)Nc1cccc(C(=O)O)c1	6.25 µg/mL (≈ 23.1 µM)			
O=C(CN1CCCCC1)Nc1cccc(C(=O)O)c1	1.6 µg/mL (≈ 6.1 µM)	> 2	> 2	> 2
O=C(CN1CCCC1)Nc1cccc(C(=O)O)c1	1.6 µg/mL (≈ 6.44 µM)	> 2	> 2	> 2
O=C(CN1CCN(c2ccccc2)CC1)Nc1cccc(C(=O)O)c1	1.6 µg/mL (≈ 4.71 µM)	> 2	> 2	> 2
O=C(CNc1ccc(Br)cc1)Nc1cccc(C(=O)O)c1	3.12 µg/mL (≈ 8.94 µM)			
CCN(CC)CC(=O)Nc1cccc(C(=O)O)c1	3.12 µg/mL (≈ 12.5 µM)			
O=C(CNc1ccc(F)cc1F)Nc1cccc(C(=O)O)c1	1.6 µg/mL (≈ 5.22 µM)	> 2	> 2	> 2
